# Values of other authors as cited in patent publication US20120328537A1, “Topical wound management formulation” (priority 2011, published 2012).
# Test system: Strep Mutans
# Conditions: in particular Strep Mutans, the main bacteria responsible for dental caries
compound,measurement,value
OC[C@@H](O)[C@H](O)[C@@H](O)CO [Xylitol],growth of bacteria,inhibit the growth of bacteria
